{"source": "patent US9775354B2", "about": "“Herbicidal composition having improved plant safety” (priority 2013, dated 2017)", "format_in_all_cases": "in vivo", "key": {"[1]": {"test_system": "wheat (Triticum aestivum L.)", "assay": "Test Example 1: growth inhibition of wheat after foliar treatment (pot test)", "details": "compound B not added, seventh day after treatment", "description": "Upland field soil was put into a 1/1,000,000 ha pot, and seeds of wheat (Triticum aestivum L.) were sown. […] Destiny HC, manufactured by Winfield Solutions, LLC.) and applied for foliar treatment by a small sprayer. On the seventh day after treatment, the state of growth of the wheat was visually observed to determine the growth inhibition rate (%) in accordance with the following evaluation standards."}, "[2]": {"test_system": "bentgrass (Agrostis stolonifera L.)", "assay": "Test Example 5: growth inhibition of bentgrass after foliar treatment (pot test)", "details": "compound A 100 g/ha, compound B not added; 24th day after treatment", "description": "(§1) On the seventh day after treatment, the state of growth of the wheat was visually observed to determine the growth inhibition rate (%) in accordance with the following evaluation standards. The results are shown in Table 1. • Growth inhibition rate (%)=0 (equivalent to the non-treated area) to 100 (complete kill)\nUpland field soil was put into a 1/1,000,000 ha pot, and turf of bentgrass (Agrostis stolonifera L.) was put. When the bentgrass reached a height of […], predetermined amounts of compound A and mefenpyr-diethyl or cloquintocet-mexyl were diluted with water (in an amount corresponding to 300 L/ha) containing 0.5 vol % of an agricultural adjuvant (tradename: Destiny HC, manufactured by Winfield Solutions, LLC) and applied for foliar treatment by a small sprayer.\nOn the 24th day after treatment, the state of growth of the bentgrass was visually observed to determine the growth inhibition rate (%) in the same manner as in the above Test Example 1."}, "[3]": {"test_system": "timothy (Phleum pratense L.)", "assay": "Test Example 4: growth inhibition of timothy after foliar treatment (pot test)", "details": "compound A 100 g/ha, compound B not added; sixth day after treatment", "description": "as §1\n(§2) Upland field soil was put into a 1/1,000,000 ha pot, and seeds of timothy (Phleum pratense L.) were sown. When the timothy reached 1.6 to 2.0-leaf stage, predetermined amounts of compound A and isoxadifen-ethyl, mefenpyr-diethyl or cloquintocet-mexyl were diluted with water (in an amount corresponding to 300 L/ha) containing 0.5 vol % of an agricultural adjuvant (tradename: Destiny HC, manufactured by Winfield Solutions, LLC) and applied for foliar treatment by a small sprayer.\nOn the sixth day after treatment, the state of growth of the timothy was visually observed to evaluate the growth inhibition rate (%) in the same manner as in the above Test Example 1."}, "[4]": {"test_system": "perennial ryegrass (Lolium perenne L.)", "assay": "Test Example 3: chlorosis in perennial ryegrass after foliar treatment (pot test)", "details": "compound A 100 g/ha, compound B not added; sixth day after treatment; degree 0 to 5.0", "description": "Degree of chlorosis=0 (equal to the non-treated area) to 5.0 (complete chlorosis) Upland field soil was put into a 1/1,000,000 ha pot, and seeds of perennial ryegrass (Lolium perenne L.) were sown. […] Destiny HC, manufactured by Winfield Solutions, LLC.) and applied for foliar treatment by a small sprayer."}, "[5]": {"test_system": "kentucky bluegrass (Poa pratensis L.)", "assay": "Test Example 6: chlorosis in kentucky bluegrass after foliar treatment (pot test)", "details": "compound A 100 g/ha, compound B not added; seventh day after treatment; degree 0 to 5.0", "description": "Degree of chlorosis=0 (equal to the non-treated area) to 5.0 (complete chlorosis)\nas §2, with “kentucky bluegrass (Poa pratensis” for “timothy (Phleum pratense”, “kentucky bluegrass” for “timothy”, “2-leaf” for “1.6 to 2.0-leaf”\nOn the seventh day after treatment, chlorosis which developed in the kentucky bluegrass was evaluated in the same manner as in the above Test Example 2."}}, "data": [{"smiles": "CCn1ncc(C(=O)c2ccc(S(C)(=O)=O)c(OCCOC)c2C)c1OC(C)OC(=O)OC", "note": "(stereo not drawn) [Compound A, 1-(1-ethyl-4-(3-(2-methoxyethoxy)-2-methyl-4-(methylsulfonyl)benzoyl)-1H-pyrazol-5-yloxy)ethyl methyl carbonate]", "values": [{"measurement": "Growth inhibition rate (%) of wheat", "setting": "[1]; compound A 100 g/ha", "value": 40, "unit": "%"}, {"measurement": "Growth inhibition rate (%) of wheat", "setting": "[1]; compound A 150 g/ha", "value": 40, "unit": "%"}, {"measurement": "Growth inhibition of bentgrass (%)", "setting": "[2]", "value": 50, "unit": "%"}, {"measurement": "Growth inhibition rate (%) of timothy", "setting": "[3]", "value": 10, "unit": "%"}, {"measurement": "Chlorosis in perennial ryegrass", "setting": "[4]", "value": 0.4}, {"measurement": "Chlorosis in kentucky bluegrass", "setting": "[5]", "value": 1.7}]}]}
